Test results: ChEMBL document CHEMBL3507680, “University of Dundee, Gates Library screen for HepG2 cell viability”

Experiment: Human HepG2 cell viability assay in 384 well format
Type: toxicity, cell-based
Set-up: dose 125 nL, time 70.5 hour; concentration not given beside the values
Conditions: HepG2 cells, read-out: Inhibition

SMILES | cytotoxicity at 70.5 h
Cc1cc(Cn2cc(C#N)c(=O)c3ccccc32)on1 | 8.12%
Cc1noc(C)c1C(C)NC(=O)N1CCCN(C(=O)c2ccsc2)CC1 (centres undefined) | -13.8%
COCC(=O)NCCn1ccc2c(OC)cccc21 | -6.28%
Cc1ccc(CN2Cc3nnn(C)c3C(COCC(=O)N(C)C)C2)s1 (centres undefined) | -8.72%
Cc1ncccc1O[C@H]1CCN(C(=O)c2cccs2)CC[C@@H]1O | -14.1%
CCCN(Cc1cnn(C)c1)S(=O)(=O)c1cccc(F)c1C#N | -2.96%
CC(C)c1cc(C(=O)N2CCOCC2CC(=O)c2ccco2)nn1C (centres undefined) | -0.209%
Cc1ccccc1OC1CCN(S(=O)(=O)c2c(C)n[nH]c2C)CC1 | -6.57%
NC(=O)NCCC(=O)NCc1nn(-c2ccccc2)c2c1CCC2 | -16.4%
CCCn1nnnc1CN(c1ccc(C)cc1)C(C)C | -5.93%
Cc1nccn1-c1cc(CNC(=O)C2CCCO2)ccn1 (centres undefined) | -7.47%
CCn1cc(Br)c(C(=O)NCc2cccnc2)n1 | -7.68%
O=C(Cn1ccc(=O)cc1)N1C[C@H]2CC[C@@H]1CN(c1ncccn1)C2 | -8.59%
COCCCNC(=O)Nc1cccc2ncccc12 | 30.8%
CCn1c(CN(C)C)nnc1C1CCN(c2ccnc(C)c2)CC1 | -3.44%
O=C1C(n2nnc(-c3ccsc3)n2)CCN1CC(F)(F)F (centres undefined) | -11.5%
CCOCC1CN(C(=O)Cc2ccccn2)Cc2c1cnn2CC (centres undefined) | 23.4%
Cc1nn(CC(=O)N2CCN(Cc3cccnc3)CC2)c(C)c1Cl | -10.2%
CNC(=O)c1sc2ccccc2c1CC1CCCCN1Cc1ncc[nH]1 (centres undefined) | -7.25%
O=C(NCCn1cccc1)c1c(O)cc(F)cc1F | -6.2%
Cc1nn(C)cc1CN1CCCCCC1c1ccccc1Cl (centres undefined) | 17.7%
Cc1cc(C)c(S(=O)(=O)Nc2c(C)noc2C)cc1C(=O)O | -2.9%
O=c1[nH]c(C2CCOC2)nc2ccc(Cl)cc12 (centres undefined) | 7.32%

SMILES | cytotoxicity at 70.5 h
COc1c(CNCc2ccccc2-n2ccnc2)c(C)nn1C | 8.51%
Cc1ccc(S(=O)(=O)N2CCOCC2C#N)c(F)c1 (centres undefined) | 2.28%
Clc1ccc2nncc(N3CCCCC3)c2c1 | -10.7%
O=C(O)[C@]12CCCN(Cc3ccncc3)[C@@H]1CCN(c1cnccn1)C2 | 8.46%
CC(C)Cc1noc(CN(C)C(=O)CCNC(=O)c2ccccc2F)n1 | -8.23%
CCN1CCN(CC(=O)N2CCOC(Cc3ccc(OC)cc3)C2)CC1 (centres undefined) | -16%
CN(CC1CCCC1)C(=O)c1cn(C)nc1-c1cccnc1 | -3.43%
CN1CC2(CCN(C(=O)CCCOCc3ccccc3)C2)OC1=O (centres undefined) | -11.2%
N#Cc1cccc(N2CC3(CCN(C(=O)c4ccnnc4)C3)CC2=O)c1 (centres undefined) | -10.5%
CCC(=O)N(C)CC(=O)Nc1ccc(Br)cn1 | 2.06%
Cc1nc(C)n(CC2CCCN(Cc3noc(C)n3)C2)n1 (centres undefined) | -5.88%
CN(CCO)Cc1nnc(C2CCN(C[C@H]3[C@@H]4CNC[C@@H]43)CC2)n1C | 9.78%
CC(C)c1nnsc1CNC(=O)C1CCN(C(=O)C2CC2)CC1 | 2.6%
CCc1nc(CCNC(=O)NC2CC(=O)N(C(C)(C)C)C2)cs1 (centres undefined) | -5.26%
COc1ccc(-c2cccc(-c3ccn(CCCN(C)C)n3)c2)nn1 | -13.7%
O=C(Cc1ccccc1)N1CCOC(c2nc(-c3ncccn3)no2)C1 (centres undefined) | -4.21%
CCc1ccccc1-n1cc(O)c(C(=O)N2CCCCC2)n1 | -4.48%
CN1CCCN(c2nc(C3CCCC3)nc3c2cnn3C)CC1 | 14.5%
C[C@H]1CN(C(=O)c2ccoc2)C[C@@]12CCN(CCN(C)C)C2=O | 14.7%
CCc1ccc(CN(C)Cc2nc(-c3cnccn3)no2)nc1 | -13.4%
Cc1ccc(CN2CCC3(CC2)CC(NC(=O)c2ccccn2)CO3)o1 (centres undefined) | -2.22%
CS(=O)(=O)c1cncnc1C1CCCN(C(=O)NCc2ccccc2)C1 (centres undefined) | -6.21%
CCCc1cc(C(=O)N2CCCN(c3cccnn3)CC2)[nH]n1 | -0.666%

SMILES | cytotoxicity at 70.5 h
C=C(C)COCCNC(=O)C1CCCN1C(C)=O (centres undefined) | -13.6%
OCc1cc2ccccc2nc1NCC1CCN(CC(F)(F)F)C1 (centres undefined) | 27.3%
Cc1cnn(CC2CCCN2Cc2coc(-c3cccc(F)c3)n2)c1 (centres undefined) | -113%
CCn1ncc(Cl)c1CN(C)C(=O)CCn1ncc(Br)c1C | -18%
COc1cccc(C2CCCN2Cc2nnnn2C2CC2)c1 (centres undefined) | -3.76%
CC(C)(C)OC(=O)N1CCC[C@H](NCc2cc[nH]c2)C1 | -11%
Cc1nc(N2CCC3(CCCNC3=O)C2)nc2c1CCCC2 (centres undefined) | -3.11%
COC(C(=O)NC1CCN(S(C)(=O)=O)CC1)c1ccccc1 (centres undefined) | 15.6%
CC(C)NC(=O)N1CCCCC1c1nnc2n1CCNC2 (centres undefined) | 20.4%
CCOCCOC(C)C(=O)Nc1ccc2[nH]c(C)cc2c1 (centres undefined) | -8.04%
CC(C1CCN(Cc2cnc(-c3cccs3)nc2)CC1)N(C)C (centres undefined) | 28.9%
CCn1ccnc1CN1CCC(N(Cc2ncc(C)o2)C(C)=O)C1 (centres undefined) | 4.91%
CCCn1nnc(NCc2cc(Br)cc(Br)c2OC)n1 | -9.35%
CN(Cc1cc2n(n1)CCNC2)Cc1cc(-c2ccccn2)no1 | -5.4%
CCn1c(CN(C)C)nnc1C1CCN(Cc2ccc(Cl)c(F)c2)CC1 | -6.05%
O=S(=O)(CC1CCCCC1)NCc1ccnc(O)c1 | -7.43%
Cc1ccc(S(=O)(=O)NCc2cccc(C(=O)N3CCCC3)c2)cc1F | -7.96%
CCn1ccnc1CN1CCN(c2ncnc3ccccc23)CC1 | -2.5%
CCCc1nc(CN(CC)Cc2ccc(S(C)(=O)=O)cc2)no1 | 10.1%
Cc1cc(CNC(=O)NC(C)c2ccc(N3CCOCC3)cc2)no1 (centres undefined) | -5.55%
CCN1CCC2(CC1)CN(C(C)=O)c1ccc(C)cc12 | -7.76%
COc1cccc(S(=O)(=O)NC(=O)CCC2CCCO2)c1 (centres undefined) | 1.07%
CCN1C(=O)CCC12CCCN(CCc1ccccc1)C2 (centres undefined) | 34.9%

SMILES | cytotoxicity at 70.5 h
CCC1=NN2C(=N)/C(=C/c3cccc(Cl)c3)C(=O)N=C2S1 | -5.39%
CN1C(=O)COc2ccc(NC(=O)CCc3nc4cccnc4[nH]3)cc21 | -9.73%
CCn1cc(NC(=O)c2c(C)nn(C)c2C)c(C(N)=O)n1 | 19%
Cc1noc(C)c1C1CCCN1C(=O)c1cn2ccsc2n1 (centres undefined) | -3.13%
O[C@]12CCNC[C@H]1CN(c1ncccc1Cl)CC2 | -16.6%
CCc1nn(C)c(Cl)c1CN1C[C@@H](NC(=O)N(C)C)[C@H](C(C)C)C1 | -5.68%
CNC(=O)N1C[C@H]2C[C@H](C(=O)Nc3cccnc3)[C@@H](C1)O2 | -2.82%
CCCOCC1CCN(C(=O)Cn2cccc(OC)c2=O)C1 (centres undefined) | -9.9%
Cc1cc(C(O)CCNS(=O)(=O)c2ccc(Cl)s2)c(C)o1 (centres undefined) | -15.4%
CCN(CC)Cc1ccc(C(=O)N2CCN(CC(C)O)CC2)o1 (centres undefined) | -5.77%
O=C(CCc1ccc2c(c1)OCO2)N1CCCC(n2cccn2)C1 (centres undefined) | 13.3%
CN1[C@@H](C(=O)NCC2CC2)C[C@@H]2CN(Cc3ccoc3)C[C@@H]21 | 13.7%
C/C=C(\C)CN1C[C@H](NC(=O)c2cnc(O)cn2)C[C@H]1C(=O)NCC | -9.9%
Cc1cc(C)c(S(=O)(=O)Nc2c(C)nc(N(C)C)nc2C)cc1C | 7.13%
CN(C)CCCn1ccc(-c2cccc(-c3cncnc3)c2)n1 | -9.25%
O=C(NCCCOCc1ccco1)c1cccnc1N1CCOCC1 | 6.19%
CN(C)CC1CN(c2ncnc3ccsc23)CCO1 (centres undefined) | 8.47%
COc1ccccc1CNC(=O)Cn1nc(-c2ccc(F)cc2)oc1=O | 10.9%
Cc1cnn(CCNCCCOc2ccc3c(c2)OCO3)c1 | -0.972%
Cc1nc2cc(-c3nccn3C)nn2c(N2CCCC(O)C2)c1C (centres undefined) | 0.494%
Cc1ccc(CN2CCN(c3cncc(N(C)C)n3)CC2=O)cc1C | -7.53%
CS(=O)(=O)N1C[C@@H]2CC[C@H](C1)N(Cc1ccsc1)C2 | 34.2%
CCN(C(=O)Cc1ccc(NC(=O)NC2CC2)cc1)c1ccccc1 | -3.6%

SMILES | cytotoxicity at 70.5 h
CCn1cc(CN2CCCCC2CCn2ccnc2C)cc1C#N (centres undefined) | -6.87%
CN1CC2(CCCN(Cc3cccc(Oc4ccccc4)c3)C2)OC1=O (centres undefined) | 24.6%
CC(c1nccs1)N(C)C(=O)c1cc(CN(C)Cc2ccccc2)on1 (centres undefined) | 0.573%
Cn1cccc1C(=O)N1CCC2(CCCN(CC3CCC3)C2=O)C1 (centres undefined) | -2.25%
COc1ccccc1CN1CCC(O)(Cn2ccc3ncccc32)CC1 | -2.09%
CNS(=O)(=O)CC1CCCN1c1ccc(Br)cn1 (centres undefined) | -0.632%
Cc1nc(NCC2CC2)nc2c1COCC21CCN(C(=O)NC(C)C)C1 (centres undefined) | -5.59%
O=C(N1CCOCC1)N1CCC(Nc2ccncn2)CC1 | -7.28%
O=C1NC(c2ccccc2)=N[C@@]12CC[C@@H]1CN(CC3CCOCC3)C[C@@H]12 | 23.3%
COCC(=O)N1CCCC(COc2ccccc2C)C1 (centres undefined) | 12.8%
O=C(Nc1ccccn1)c1cncc(C2CCNCC2)n1 | -6.06%
CCCc1noc(C2CCCCN2C(=O)CCc2cnn(C)c2)n1 (centres undefined) | -0.695%
O=C(C1CC1)N1C[C@@H](F)[C@@H](OCc2nc3cc(F)ccc3[nH]2)C1 | -3.11%
Cc1nc(C)c(COc2ccc(N(C)S(C)(=O)=O)cc2)s1 | 2.74%
CCOc1cccc(C(=O)Nc2ccn(CC)n2)c1 | -19.9%
COCc1cccc(NC(C)C(=O)N(C)Cc2ccccc2)c1 (centres undefined) | 10.7%
Cc1cc2ccccc2n1CCC(=O)N1CCCC1Cn1cccn1 (centres undefined) | -9.07%
COC(=O)c1cc(C)nc(N2CCN(Cc3ccn(C(C)C)c3)CC2)n1 | -18.7%
c1ccc2c(c1)CCN2c1nc(N2CCOCC2)c2nn[nH]c2n1 | 32.9%
CCCS(=O)(=O)CC(=O)NC(C)c1cccc(-n2cccn2)c1 (centres undefined) | 10.5%
O=C(c1cnoc1)N1CCC[C@]2(C[C@@H](OCc3ccccn3)CO2)C1 | -9.96%
Cc1ncccc1Oc1nccnc1C1CCN(S(C)(=O)=O)CC1 | -5.66%
